Results: patent US20240246918A1, “COMPOUNDS AND COMPOSITIONS AS EIF4E INHIBITORS AND THE USES THEREOF” (Ribometrix, Inc., priority 2022, published 2024)
Like-named read-outs stand apart in the source and are kept apart here.

How the values were obtained:
human eIF4E protein = target: T1, human eIF4E protein (Homo sapiens, UniProt P06730); experiment: Biochemical competitive binding assay (TR-FRET competition, EDA-m7GDP-ATTO-647N probe); settings: read-out: hEIF4E TR-FRET IC50
T1 construct: purchased Novus NBP-45314
Procedure, shortened: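 His-tagged human eIF4E (4 nM) was preincubated with Eu-anti-His antibody (2.5 nM) and added to compound (11-point, 4-fold dilutions) for 15 min. Then 5 nM EDA-m7GDP-ATTO-647N was added for 15 min, in HEPES pH 7.5, 100 mM KCl. The 665/620 TR-FRET ratio was normalized to controls, and IC50 was taken from 4-parameter fits.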

[1] = system: cap-dependent translation in Flp-In-293 reporter cells; experiment: Cellular cap-dependent translation inhibition assay (dual luciferase assay, DLA; Fluc/Rluc ratio, 24 hours); type: cell-based
[2] = system: COLO 205 colorectal tumor cells; experiment: Tumor cell viability inhibition assay (CellTiter-Glo 2.0, 72 hours); type: cell-based; settings: COLO 205 cell viability
Procedure, shortened: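 COLO 205 cells (1500/well, RPMI-1640 + 10% FBS) exposed for 72 h to an 11-point, 4-fold dilution series; cellular ATP read by CellTiter-Glo 2.0 luminescence. Data normalized to DMSO and maximum-inhibition controls; IC50 from 4-parameter curve fit.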

[3] = Homo sapiens, Flp-In-293, 24 h, dual luciferase assay, Flp-In-293 reporter cells, 24 hours, Fluc/Rluc ratio, read-out: DLA 205 IC50
[4] = Homo sapiens, Flp-In-293, 24 h, read-out: DLA 205 IC50, dual luciferase assay, Flp-In-293 reporter cells, 24 hours, Fluc/Rluc ratio
[5] = dual luciferase assay, Flp-In-293 reporter cells, 24 hours, Fluc/Rluc ratio, read-out: DLA 205 IC50

T1 sequence (P06730 whole entry): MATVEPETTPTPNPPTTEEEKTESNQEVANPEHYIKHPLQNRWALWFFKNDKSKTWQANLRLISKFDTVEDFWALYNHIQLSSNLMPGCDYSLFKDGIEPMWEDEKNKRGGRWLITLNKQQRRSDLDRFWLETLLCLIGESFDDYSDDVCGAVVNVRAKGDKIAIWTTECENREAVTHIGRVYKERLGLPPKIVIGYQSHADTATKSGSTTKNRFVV

SMILES	IC50 (human eIF4E protein) [nM]	IC50 ([2]; Homo sapiens, COLO 205, 72 h) [µM]	IC50 [2] [µM]	IC50 [1, 3] [nM]	IC50 [1, 4] [nM]	IC50 ([2]; Homo sapiens) [µM]	IC50 [1, 5] [nM]
Cc1nc2c(c(=O)n1CC#Cc1ccc(Cl)cc1-c1ccnc3c(C(=O)O)csc13)CC(N1CCCCC1)CC2 (stereo not drawn) [Compound 357]	< 100	< 5		< 1000			
COC1CCc2nc(C)n(CCOc3ccc(Cl)cc3-c3cc(C)nc4c(C(=O)O)csc34)c(=O)c2C1 (stereo not drawn) [Compound 7]	100 to 500				1000 to 5000	5 to 20	
Cc1cc(-c2cc(Cl)ccc2OCCn2c(C)nc3c(c2=O)CC(N(C)C2CCCC2(F)F)CC3)c2scc(C(=O)O)c2n1 (single isomer, unassigned) [Compound 301]	< 100		5 to 20				< 1000
Cc1cc(-c2cc(Cl)ccc2OCCn2c(C)nc3c(c2=O)CC(N2CC4(CN(C)C4)C2)CC3)c2scc(C(=O)O)c2n1 (stereo not drawn) [Compound 35]	< 100	> 20		> 5000			
Cc1cc(-c2cc(Cl)ccc2OCCn2c(C)nc3c(c2=O)C[C@H](N2CCC[C@@H](F)C2)CC3)c2scc(C(=O)O)c2n1 (single isomer, unassigned) [Compound 323]	< 100	< 5		< 1000			
Cc1nc2c(c(=O)n1CC#Cc1ccc(Cl)cc1-c1ccnc3c(C(=O)O)csc13)CC(N(C)C1CC(F)(F)C1)CC2 (stereo not drawn) [Compound 86]	< 100	< 5		< 1000			
Cc1nc2c(c(=O)n1CC#Cc1ccc(Cl)cc1-c1ccnc3c(C(=O)NS(C)(=O)=O)csc13)CC(N(C)Cc1ccncc1)CC2 (single isomer, unassigned) [Compound 295]	< 100	< 5		< 1000			
Cc1cc(-c2cc(Cl)ccc2OCCn2c(C)nc3c(c2=O)CC(N2CCCC2)CC3)c2scc(C(=O)O)c2n1 (stereo not drawn) [Compound 4]	< 100				< 1000	5 to 20	
Cc1cc(-c2cc(Cl)ccc2OCCn2c(C)nc3c(c2=O)CC(N(C)CCOC(F)(F)F)CC3)c2scc(C(=O)NS(C)(=O)=O)c2n1 (stereo not drawn) [Compound 55]	< 100	< 5		< 1000			
Cc1cc(-c2cc(Cl)ccc2OCCn2c(C)nc3c(c2=O)CC(N(C)CC2COC2)CC3)c2scc(C(=O)O)c2n1 (stereo not drawn) [Compound 29]	< 100	< 5		< 1000			
Cc1nc2c(c(=O)n1CC#Cc1ccc(Cl)cc1-c1ccnc3c(C(=O)O)csc13)CC(N(C)C1CC1)CC2 (stereo not drawn) [Compound 290]	< 100	< 5		< 1000			
Cc1nc2c(c(=O)n1CCOc1ccc(Cl)cc1-c1cccc(C(=O)O)c1)CC(N(C)C)CC2 (single isomer, unassigned) [Compound 24]	< 100		5 to 20	< 1000			
Cc1cc(-c2cc(Cl)ccc2OCCn2c(C)nc3c(c2=O)CC(N(C)C(=O)C2CN(C)C2)CC3)c2scc(C(=O)O)c2n1 (stereo not drawn) [Compound 73]	< 100	> 20		> 5000			
Cc1cc(-c2cc(Cl)ccc2OCCn2c(C)nc3c(c2=O)CC(N(C2CC2)C2CC2)CC3)c2scc(C(=O)NS(C)(=O)=O)c2n1 (single isomer, unassigned) [Compound 292]	< 100		5 to 20				1000 to 5000
Cc1nc2c(c(=O)n1CC#Cc1ccc(Cl)cc1-c1ccnc3c(C(=O)NS(C)(=O)=O)csc13)CC(N(C)C1CC(F)(F)C1)CC2 (single isomer, unassigned) [Compound 334]	< 100		< 5				< 1000
Cc1nc2c(c(=O)n1CC#Cc1ccc(Cl)cc1-c1ccnc3c(C(=O)NS(C)(=O)=O)csc13)CC(N1CC(F)(F)C1)CC2 (single isomer, unassigned) [Compound 332]	100 to 500		5 to 20				> 5000
Cc1cc(-c2cc(Cl)ccc2OCCn2c(C)nc3c(c2=O)CC(N(C2CC2)C2CC(F)(F)C2)CC3)c2scc(C(=O)O)c2n1 (stereo not drawn) [Compound 76]	< 100	< 5		< 1000			
Cc1cc(-c2cc(Cl)ccc2OCCn2c(C)nc3c(c2=O)CC(N(C)C2CCC(F)(F)C2)CC3)c2scc(C(=O)O)c2n1 (single isomer, unassigned) [Compound 338]	< 100		< 5				< 1000

Second part, led by results:

IC50 (human eIF4E protein) [nM]	IC50 ([2]; Homo sapiens, COLO 205, 72 h) [µM]	IC50 [2] [µM]	SMILES	IC50 [1, 3] [nM]	IC50 [1, 4] [nM]	IC50 ([2]; Homo sapiens) [µM]	IC50 [1, 5] [nM]
< 100		< 5	Cc1cc(-c2cc(Cl)ccc2OCCn2c(C)nc3c(c2=O)CC(N2CC(F)C2)CC3)c2scc(C(=O)NS(C)(=O)=O)c2n1 (single isomer, unassigned) [Compound 343]				< 1000
< 100	< 5		Cc1cc(-c2cc(Cl)ccc2OCCn2c(C)nc3c(c2=O)CC(N2CC(C(F)(F)F)C2)CC3)c2scc(C(=O)NS(C)(=O)=O)c2n1 (single isomer, unassigned) [Compound 321]	< 1000			
< 100	< 5		Cc1cc(-c2cc(Cl)ccc2OCCn2c(C)nc3c(c2=O)CC(N(C)C2CCC2)CC3)c2scc(C(=O)O)c2n1 (stereo not drawn) [Compound 91]	< 1000			
< 100	< 5		COC1CCN(C2CCc3nc(C)n(CCOc4ccc(Cl)cc4-c4cc(C)nc5c(C(=O)NS(C)(=O)=O)csc45)c(=O)c3C2)CC1 (stereo not drawn) [Compound 79]	< 1000			
500 to 5000	5 to 20		COC(=O)c1csc2c(-c3cc(Cl)ccc3OCCn3c(C)nc4c(c3=O)CC(N(C3CC3)C3CC3)CC4)cc(C)nc12 (stereo not drawn) [Compound 339]	> 5000			
< 100	< 5		Cc1cc(-c2cc(Cl)ccc2OCCn2c(C)nc3c(c2=O)CC(N(C)CC(F)F)CC3)c2scc(C(=O)O)c2n1 (stereo not drawn) [Compound 58]	< 1000			
< 100		5 to 20	Cc1sc2c(-c3cc(Cl)ccc3OCCn3c(C)nc4c(c3=O)CC(N(C)CC3CC(F)(F)C3)CC4)cn(C)c(=O)c2c1C(=O)O (single isomer, unassigned) [Compound 252]				1000 to 5000
< 100	5 to 20		Cc1cc(-c2cc(Cl)ccc2OCCn2c(C)nc3c(c2=O)CC(N(C)Cc2ccncc2)CC3)c2scc(C(=O)O)c2n1 (single isomer, unassigned) [Compound 99]	1000 to 5000			
< 100	< 5		Cc1cc(-c2cc(Cl)ccc2OCCn2c(C)nc3c(c2=O)CC(N(C)CCOC(F)(F)F)CC3)c2scc(C(=O)O)c2n1 (stereo not drawn) [Compound 41]	< 1000			
< 100	< 5		Cc1cc(-c2cc(Cl)ccc2OCCn2c(C)nc3c(c2=O)CC(N(C)Cc2ccncc2F)CC3)c2scc(C(=O)O)c2n1 (stereo not drawn) [Compound 57]	< 1000			
100 to 500	> 20		CC(=O)N(C)C1CCc2nc(C)n(CCOc3ccc(Cl)cc3-c3cc(C)nc4c(C(=O)O)csc34)c(=O)c2C1 (stereo not drawn) [Compound 38]	> 5000			
100 to 500	< 5		Cc1nc2c(c(=O)n1CC#Cc1ccc(Cl)cc1-c1ccnc3c(C(=O)O)csc13)CC(N1CC(F)(F)C1)CC2 (stereo not drawn) [Compound 85]	1000 to 5000			
500 to 5000	> 20		Cc1cc(-c2cc(Cl)ccc2OCCn2c(C)nc3c(c2=O)CC2(CC3)CCN(C)CC2)c2scc(C(=O)O)c2n1 [Compound 268, 7-(5-chloro-2-(2-(1,2′-dimethyl-4′-oxo-7′,8′-dihydro-4′H-spiro[piperidine-4,6′-quinazolin]-3′(5′H)-yl)ethoxy)phenyl)-5-methylthieno[3,2-b]pyridine-3-carboxylic acid]	> 5000			
< 100	< 5		Cc1cc(-c2cc(Cl)ccc2OCCn2c(C)nc3c(c2=O)CC(N(C)C2CCN(CC(F)(F)F)CC2)CC3)c2scc(C(=O)O)c2n1 (stereo not drawn) [Compound 276]	< 1000			
< 100	> 20		Cc1cc(-c2cc(Cl)ccc2OCCn2c(C)cc3c(c2=O)CC2(CC3)CN(C)C2)c2scc(C(=O)O)c2n1 [Compound 269]	> 5000			
< 100	< 5		Cc1cc(-c2cc(Cl)ccc2OCCn2c(C)nc3c(c2=O)C[C@H](N2CC[C@H](F)C2)CC3)c2scc(C(=O)NS(C)(=O)=O)c2n1 (single isomer, unassigned) [Compound 346]	< 1000			
< 100	> 20		Cc1cc(-c2cc(Cl)ccc2OCCn2c(C)nc3c(c2=O)CC(N2CCN(C)C(=O)C2)CC3)c2scc(C(=O)O)c2n1 (stereo not drawn) [Compound 95]	> 5000			
< 100	< 5		COC1CN(C2CCc3nc(C)n(CCOc4ccc(Cl)cc4-c4cc(C)nc5c(C(=O)O)csc45)c(=O)c3C2)C1 (stereo not drawn) [Compound 28]	< 1000			
< 100	< 5		Cc1cc(-c2cc(Cl)ccc2OCCn2c(C)nc3c(c2=O)CC(N(C)Cc2ccncc2)CC3)c2scc(C(=O)NS(C)(=O)=O)c2n1 (single isomer, unassigned) [Compound 330]	< 1000			
< 100	< 5		Cc1cc(-c2cc(Cl)ccc2OCCn2c(C)nc3c(c2=O)CC(N(C)CC2CC(F)(F)C2)CC3)c2scc(C(=O)O)c2n1 (stereo not drawn) [Compound 96]	< 1000			
